The values below come from patent US20250041315A1, “LEVONORGESTREL BUTANOATE FORMULATION AND METHODS RELATING THERETO” (The USA, as Represented by the Secretary, Department of …, priority 2021, published 2025).

The conditions of data set [1]: injections at 3-month intervals; cited from earlier work.
Data set [2] can be described thus: Effect of gamma irradiation sterilization on spray dried LNGB particles (colour, qualitative HPLC). In kind it is physicochemical. As to the method: In this comparative example, a sample of LNGB particles was prepared using a gamma irradiation step to sterilize spray dried particles. The LNGB particles were obtained by spray drying and then were subjected to gamma irradiation to evaluate the effect of irradiation on the particles. […] Qualitative HPLC was performed to compare the peak profiles of the LNGB particles before and after irradiation. FIGS. 2-5 show HPLC traces of the sample before (FIG. 2) and after (FIGS. 3-5) irradiation. Irradiated samples generated three major peaks, A, D, and E, at >0.15%, as well as a small peak, C, at ˜0.07%. […] In N2- and Ar-purged irradiated samples (FIGS. 4 and 5, respectively), peaks F and G were not resolved from other peaks (either degradation products or gradient artifacts).

`CC(=O)O[C@]1(C(C)=O)CC[C@H]2[C@@H]3C[C@H](C)C4=CC(=O)CC[C@]4(C)[C@H]3CC[C@@]21C` [DMPA, Depomedroxyprogesterone Acetate]: in data set [1], the typical failure rate is given as 4%.
Take `C#C[C@]1(OC(=O)CCC)CC[C@H]2[C@@H]3CCC4=CC(=O)CC[C@@H]4[C@H]3CC[C@@]21CC` [LNGB particles, Levonorgestrel butanoate]: in data set [2] (irradiated samples), the “major impurity peaks A, D, and E (HPLC) after irradiation” value is recorded as over 0.15%; the “small impurity peak C (HPLC) after irradiation” value is given as about 0.07%. The “colour of particles after gamma irradiation” value in data set [2] (spray dried particles, gamma irradiated, initial particles white/translucent) is on record as “yellow color”.
